According to article PMC4710668, “Bioactivation of food genotoxicants 5-hydroxymethylfurfural and furfuryl alcohol by sulfotransferases from human, mouse and rat: a comparative study” (Archives of Toxicology, 2014):

What was measured:
Test in all cases: HMF sulfoconjugation assay
Assay type in all cases: biochemical
mSult1a1 = target: T1, mSult1a1 (Mus musculus, UniProt P52840)
T1 construct: made in house; host or cells: Salmonella typhimurium TA1538 (cytosolic fraction, enzyme not purified)
Description: (§1) Cytosolic fractions containing individual SULT forms were prepared from transgenic S. typhimurium TA1538. Table S1 in the Supplementary Material provides a summary of the thirty SULTs used in the current study together with references describing the cloning of the respective S. typhimurium TA1538 strains. The expressed SULT forms are denoted with the prefixes h, m and r for human, mouse and rat enzymes, respectively. Bacteria were grown in Luria Broth medium containing ampicillin (100 µg/ml) by stirring for 8 h at 200 revolutions/min at 37 °C. The bacterial suspensions were centrifuged at 5,000 g for 10 min. The sediments were washed twice with 25 ml of 10 mM potassium phosphate buffer (pH 7.4)/50 mM potassium chloride (KCP buffer) and centrifuged again. The pellets were taken up in 800 µl KCP buffer and sonicated thrice for 15 s with 30 s pauses in between. The soluble fraction was attained by centrifuging for 1 h at 100,000 g. The supernatants (in the following termed cytosolic preparations) were frozen at −80 °C. The protein concentrations were determined according to a bicinchoninic acid (BCA) assay protocol. The SULT concentrations in the cytosolic preparations were estimated after electrophoretic separation and immunodetection using inclusion bodies of different SULT forms as standards (Teubner et al. [2007]). The preparation of SULT inclusion bodies and the immunodetection of SULTs is described in the Supplementary Material, which also contains a representative immunoblot of different amounts of rSult1a1standard and a cytosolic preparation of S. typhimurium expressing rSult1a1 (Fig. S1).
(§2) The reactions were conducted in mixtures of 100 µl containing 25–200 µg protein, 50 mM potassium phosphate buffer (pH 7.4), 5 mM MgCl2, 50 µM PAPS and different concentrations of HMF at 37 °C. Preliminary experiments ensured that measurements were recorded under ‘linear’ conditions, i.e., doubling of protein concentration or incubation time was doubling the amount of sulfate ester formed. The reactions were stopped after 30 min by adding 300 µl ice-cold 2-propanol, mixed and centrifuged at 15,000 g for 10 min.
(§3) SMF concentrations of the clear supernatants were analyzed by UPLC-MS/MS. The protocol was adapted from the quantification of SMF in plasma samples of HMF-treated mice (Monien et al. [2009]). In short, the supernatants were analyzed using a UPLC system (Waters) connected to a Quattro Premier XE tandem quadrupole mass spectrometer (Waters) using the negative electrospray ionization mode. Samples of 4 µl were injected into a HSS T3 column (1.8 µm, 2.1 × 100 mm; Waters) and eluted with an isocratic flow of 0.35 ml/min 10 mM ammonium acetate/methanol (95:5). The fragmentation reactions of SMF yielding two principal ions, the sulfate ion radical (m/z = 204.9 → 96.0) and the protonated sulfonate ion (m/z = 204.9 → 81.0) were monitored. The tune parameters were as follows: temperature of the electrospray source 120 °C; desolvation temperature 475 °C; desolvation gas nitrogen (800 l/h); cone gas nitrogen (100 l/h); collision gas argon (indicated cell pressure ~5 × 10^−3 mbar). For the fragmentation of SMF, collision energies were 20 and 23 eV for the transitions m/z = 204.9 → 81.0 and m/z = 204.9 → 96.0, respectively. The dwell time was set to 100 ms, and capillary voltage was set to 0.35 kV. The cone and RF1 lens voltages were 32 and 0.2 V, respectively. SMF was quantified using an external calibration line that was linear in the concentration range of 1.0 nM (4 fmol/injection) to 2,500 (10 pmol/injection) SMF (r ^2 ≥ 0.99). Data acquisition and handling were performed with MassLynx 4.1 software (Waters). The limit of detection (LOD) for this technique of 2.5 nM SMF has been reported (Monien et al. [2009]). In the current study, this corresponds to 10 fmol SMF per injection or a reaction rate of 0.5 pmol SMF/mg/min.

rSult1b1 = target: T2, rSult1b1 (Rattus norvegicus, UniProt P52847)
T2 construct: made in house; host or cells: Salmonella typhimurium TA1538 (cytosolic fraction, enzyme not purified)
Description: as §1, §2, §3

hSULT1B1 = target: T3, hSULT1B1 (Homo sapiens, UniProt O43704)
T3 construct: made in house; host or cells: Salmonella typhimurium TA1538 (cytosolic fraction, not purified)
Description: as §1, §2, §3

rSult2a1 = target: T4, rSult2a1 (Rattus norvegicus, UniProt P15709)
T4 construct: made in house; host or cells: Salmonella typhimurium TA1538 (cytosolic fraction, enzyme not purified)
T4 sequence (P15709 1-284): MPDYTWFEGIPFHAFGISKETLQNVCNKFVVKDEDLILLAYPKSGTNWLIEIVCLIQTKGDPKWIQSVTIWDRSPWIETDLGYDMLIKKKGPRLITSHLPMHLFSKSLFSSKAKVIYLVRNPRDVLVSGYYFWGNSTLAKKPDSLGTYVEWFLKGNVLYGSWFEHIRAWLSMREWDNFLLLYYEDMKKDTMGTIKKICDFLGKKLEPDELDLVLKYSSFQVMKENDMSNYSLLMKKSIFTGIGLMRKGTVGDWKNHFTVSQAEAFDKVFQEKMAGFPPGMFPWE
Description: as §1, §2, §3

hSULT1C1 = target: T5, hSULT1C1 (Homo sapiens, UniProt O00338)
T5 construct: made in house; host or cells: Salmonella typhimurium TA1538 (cytosolic fraction, not purified)
Description: as §1, §2, §3

hSULT2A1 = target: T6, hSULT2A1 (Homo sapiens, UniProt Q06520)
T6 construct: made in house; host or cells: Salmonella typhimurium TA1538 (cytosolic fraction, not purified)
T6 sequence (Q06520 1-285): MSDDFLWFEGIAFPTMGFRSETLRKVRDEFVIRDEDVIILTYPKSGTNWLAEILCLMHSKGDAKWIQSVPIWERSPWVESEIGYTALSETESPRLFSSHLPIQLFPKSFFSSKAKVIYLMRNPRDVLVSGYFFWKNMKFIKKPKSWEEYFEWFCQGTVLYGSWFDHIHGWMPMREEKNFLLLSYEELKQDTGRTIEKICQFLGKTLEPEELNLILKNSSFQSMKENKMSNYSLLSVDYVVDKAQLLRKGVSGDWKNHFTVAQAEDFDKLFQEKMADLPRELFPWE
Description: as §1, §2, §3

mSult1b1 = target: T7, mSult1b1 (Mus musculus, UniProt Q9QWG7)
T7 construct: made in house; host or cells: Salmonella typhimurium TA1538 (cytosolic fraction, enzyme not purified)
Description: as §1, §2, §3

[1] = HMF sulfoconjugation, Michaelis-Menten fit

T3 sequence (O43704 whole entry): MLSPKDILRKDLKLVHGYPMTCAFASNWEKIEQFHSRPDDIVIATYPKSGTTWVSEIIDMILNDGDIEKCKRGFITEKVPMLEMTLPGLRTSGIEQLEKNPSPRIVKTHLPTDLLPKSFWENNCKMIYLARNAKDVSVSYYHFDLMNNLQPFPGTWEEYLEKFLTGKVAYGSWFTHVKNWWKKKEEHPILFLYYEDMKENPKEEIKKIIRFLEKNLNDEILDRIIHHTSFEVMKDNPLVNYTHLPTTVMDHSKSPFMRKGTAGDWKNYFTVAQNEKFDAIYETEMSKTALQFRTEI
T1 sequence (P52840 whole entry): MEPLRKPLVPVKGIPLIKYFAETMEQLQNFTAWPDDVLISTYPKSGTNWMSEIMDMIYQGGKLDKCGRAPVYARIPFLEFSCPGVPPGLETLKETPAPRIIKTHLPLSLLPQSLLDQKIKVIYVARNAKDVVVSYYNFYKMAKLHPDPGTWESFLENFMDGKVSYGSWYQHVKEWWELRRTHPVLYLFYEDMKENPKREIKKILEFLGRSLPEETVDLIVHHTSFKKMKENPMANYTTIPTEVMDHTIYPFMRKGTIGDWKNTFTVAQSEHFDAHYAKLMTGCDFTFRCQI
T7 sequence (Q9QWG7 whole entry): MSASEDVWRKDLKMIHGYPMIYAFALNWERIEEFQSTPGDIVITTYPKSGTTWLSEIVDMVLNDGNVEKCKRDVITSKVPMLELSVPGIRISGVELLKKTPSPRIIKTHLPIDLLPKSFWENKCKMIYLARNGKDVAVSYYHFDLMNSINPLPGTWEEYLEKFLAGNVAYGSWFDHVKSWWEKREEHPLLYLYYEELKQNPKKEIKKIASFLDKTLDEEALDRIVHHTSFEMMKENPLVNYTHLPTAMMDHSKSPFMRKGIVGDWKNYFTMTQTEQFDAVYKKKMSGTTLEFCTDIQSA
T2 sequence (P52847 whole entry): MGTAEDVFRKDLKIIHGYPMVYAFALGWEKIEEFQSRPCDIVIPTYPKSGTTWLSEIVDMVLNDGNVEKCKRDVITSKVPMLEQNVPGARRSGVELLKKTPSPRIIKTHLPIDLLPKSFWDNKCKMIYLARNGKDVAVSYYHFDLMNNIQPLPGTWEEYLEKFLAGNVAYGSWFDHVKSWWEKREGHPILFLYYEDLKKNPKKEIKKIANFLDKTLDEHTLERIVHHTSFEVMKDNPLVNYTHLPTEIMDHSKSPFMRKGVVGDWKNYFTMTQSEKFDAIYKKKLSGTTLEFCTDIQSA
T5 sequence (O00338 whole entry): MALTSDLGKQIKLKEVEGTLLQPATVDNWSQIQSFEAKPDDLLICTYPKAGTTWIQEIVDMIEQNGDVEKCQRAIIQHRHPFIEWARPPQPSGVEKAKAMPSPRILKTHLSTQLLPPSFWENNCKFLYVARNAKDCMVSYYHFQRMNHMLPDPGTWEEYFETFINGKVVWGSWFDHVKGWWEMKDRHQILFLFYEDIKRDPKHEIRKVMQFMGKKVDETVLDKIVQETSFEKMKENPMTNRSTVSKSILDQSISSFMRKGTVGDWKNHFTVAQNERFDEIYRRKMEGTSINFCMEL

## O=Cc1ccc(CO)o1 [HMF, 5-Hydroxymethylfurfural]
mSult1a1; 0.1 mM HMF
  Rate of sulfoconjugation: 76.6 ± 14.4 pmol/mg/min
mSult1a1; 1 mM HMF
  Rate of sulfoconjugation: 722 ± 93 pmol/mg/min
mSult1a1; 10 mM HMF
  Rate of sulfoconjugation: 2,010 ± 210 pmol/mg/min
mSult1a1; 100 mM HMF
  Rate of sulfoconjugation: 1,970 ± 70 pmol/mg/min
mSult1a1; [1]
  K M: 2.0 ± 0.3 mM
rSult1b1; 0.1 mM HMF
  Rate of sulfoconjugation: <0.5 pmol/mg/min
rSult1b1; 1 mM HMF
  Rate of sulfoconjugation: 3.4 ± 0.2 pmol/mg/min
rSult1b1; 10 mM HMF
  Rate of sulfoconjugation: 25.2 ± 0.4 pmol/mg/min
rSult1b1; 100 mM HMF
  Rate of sulfoconjugation: 30.8 ± 1.2 pmol/mg/min
rSult1b1; [1]
  K M: 15.7 ± 0.9 mM
hSULT1B1; 0.1 mM HMF
  Rate of sulfoconjugation: 2.0 ± 0.5 pmol/mg/min
hSULT1B1; 1 mM HMF
  Rate of sulfoconjugation: 22.2 ± 5.2 pmol/mg/min
hSULT1B1; 10 mM HMF
  Rate of sulfoconjugation: 133 ± 28 pmol/mg/min
hSULT1B1; 100 mM HMF
  Rate of sulfoconjugation: 272 ± 49 pmol/mg/min
hSULT1B1; [1]
  K M: 13.3 ± 0.3 mM
rSult2a1; 0.1 mM HMF
  Rate of sulfoconjugation: <0.5 pmol/mg/min
rSult2a1; 1 mM HMF
  Rate of sulfoconjugation: 1.8 ± 0.1 pmol/mg/min
rSult2a1; 10 mM HMF
  Rate of sulfoconjugation: 17.2 ± 0.6 pmol/mg/min
rSult2a1; 100 mM HMF
  Rate of sulfoconjugation: 58.9 ± 4.6 pmol/mg/min
hSULT1C1; 0.1 mM HMF
  Rate of sulfoconjugation: <0.5 pmol/mg/min
hSULT1C1; 1 mM HMF
  Rate of sulfoconjugation: <0.5 pmol/mg/min
hSULT1C1; 10 mM HMF
  Rate of sulfoconjugation: 4.7 ± 0.3 pmol/mg/min
hSULT1C1; 100 mM HMF
  Rate of sulfoconjugation: 11.0 ± 1.4 pmol/mg/min
hSULT2A1; 0.1 mM HMF
  Rate of sulfoconjugation: <0.5 pmol/mg/min
hSULT2A1; 1 mM HMF
  Rate of sulfoconjugation: 2.4 ± 0.6 pmol/mg/min
hSULT2A1; 10 mM HMF
  Rate of sulfoconjugation: 31.1 ± 5.4 pmol/mg/min
hSULT2A1; 100 mM HMF
  Rate of sulfoconjugation: 201 ± 39 pmol/mg/min
mSult1b1; 0.1 mM HMF
  Rate of sulfoconjugation: 0.9 ± 0.1 pmol/mg/min
mSult1b1; 1 mM HMF
  Rate of sulfoconjugation: 8.2 ± 0.1 pmol/mg/min
mSult1b1; 10 mM HMF
  Rate of sulfoconjugation: 66.2 ± 6.8 pmol/mg/min
mSult1b1; 100 mM HMF
  Rate of sulfoconjugation: 64.4 ± 5.0 pmol/mg/min
mSult1b1; [1]
  K M: 9.5 ± 1.1 mM
